Values quoted from earlier work, collected in patent publication US20240197632A1 (VETERINARY PHARMACY CORPORATION, priority 2022, published 2024).

general solubility property in water: 0.0021 % wt/vol
SMILES: CC(C)Cc1ccc(C(C)C(=O)O)cc1 (stereo not shown) [Ibuprofen, 2-(4-Isobutylphenyl)propanoic acid]
